Results reported in patent publication US10822327B2, “2-substituted aromatic ring-pyrimidine derivative and preparation and application thereof” (ZHEJIANG UNIVERSITY, priority 2016, dated 2020).

How the values were obtained:
[1] = molecular target: T1, Chk1 protein kinase (Homo sapiens, UniProt O14757); experiment: Chk1 enzyme inhibitory activity, ADP-Glo kit; format: biochemical; conditions: bounds, unit μM
T1 sequence (O14757 1-476): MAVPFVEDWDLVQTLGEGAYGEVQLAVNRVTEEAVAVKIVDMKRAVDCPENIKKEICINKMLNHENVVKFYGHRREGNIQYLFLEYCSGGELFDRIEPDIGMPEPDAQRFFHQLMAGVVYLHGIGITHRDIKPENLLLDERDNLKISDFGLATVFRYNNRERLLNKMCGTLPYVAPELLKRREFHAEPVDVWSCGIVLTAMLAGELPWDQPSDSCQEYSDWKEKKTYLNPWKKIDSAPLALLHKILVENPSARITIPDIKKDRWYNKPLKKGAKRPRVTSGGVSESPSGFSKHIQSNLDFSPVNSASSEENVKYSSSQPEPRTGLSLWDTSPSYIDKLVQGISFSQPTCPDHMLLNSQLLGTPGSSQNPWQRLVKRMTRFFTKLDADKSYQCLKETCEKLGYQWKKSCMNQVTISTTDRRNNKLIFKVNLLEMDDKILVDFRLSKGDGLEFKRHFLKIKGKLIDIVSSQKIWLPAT
Procedure: Saurosporine is used as a positive control, the Chk1 enzyme inhibitory activity (IC50) was evaluated using the ADP-Glo kit. […] The phosphorylation process consumes ATP. After the reaction, ADP-Glo™ Reagent consumes the remaining ATP, wherein ADP produced during the reaction can be transformed to ATP by ADP-Glo Detection Reagent. ATP acts as a substrate for the Ultra-Glo™ luciferase catalytic reaction, producing an optical signal. The test compound was dissolved in DMSO to prepare a 10 mM stock solution and diluted to 12 different concentrations in a certain ratio for testing. 1 μL of the test compound and 2 μL of 2.5× Chk1 kinase were added to each well of a 384-well plate, and 2 μL of 1× buffer was added to the control group. After incubation for 10 min at room temperature, 2 μL of 2.5× substrate was added. Ater incubation for 1 h at 37° C., 5 μL. of ADP-Glo™ Reagent was added and the reaction was stopped before incubating again for 1 h at 37° C. 10 μL of ADP-Glo Detection Reagent was added before incubating for 30 min at 37° C., and three parallel wells were set for each sample. […] by luminescence fluorescence microplate reader, and data were calculated using GraphPad Prism 5 software to calculate IC50 values.

[2] = system: human acute monocytic leukemia cells MV-4-11; experiment: MTS in vitro proliferation inhibition, MV-4-11; format: cell-based; conditions: MV4-11, 72 hours, average of three experiments
From the text: (§1) Cell lines: human multiple myeloma cells RPMI 8226, human mantle cell lymphoma cells Mino, Jeko-1, human lymphoma cells Romas, human acute monocytic leukemia cells MV-4-11, human breast cancer cells MCF-7 Human lung cancer cell A549, human prostate cancer cell LnCAP, human gastric cancer cell BGC-823, human colon cancer cell HCT116, Colo205, and human ovarian cancer cell OVCAR-8. Experimental method: using MTS method for in vitro proliferation Inhibitory activity (IC50) of compounds against different tumor cell lines.
(§2) The cells in the logarithmic growth phase were trypsinized, counted, and seeded at a density of 1×10^4 cells/well in a 96-well plate at 100 μL per well before placing in a 37° C. incubator containing 5% CO2 overnight. Six concentration gradients were set for each compound, and three sets of duplicate wells were set for each concentration. After the addition, the cells were cultured for 72 hours, and 20 μL of MTS was added. After incubating for 2 hours at 37° C., the absorbance at 490 nm (L1) was measured with a SpectraMAX 340 microplate reader. The reference wavelength was 690 nm (L2), and the (L1-L2) value was plotted against the different concentrations of the inhibitor. The half inhibitory concentration IC50 was fitted by the formula.

[3] = system: human mantle cell lymphoma cells Mino; experiment: MTS in vitro proliferation inhibition, Mino; format: cell-based; conditions: 72 hours, average of three experiments
From the text: as §1, §2

[4] = system: human gastric cancer cell BGC-823; experiment: MTS in vitro proliferation inhibition, BGC-823; format: cell-based; conditions: 72 hours, average of three experiments
From the text: as §1, §2

[5] = system: human ovarian cancer cell OVCAR-8; experiment: MTS in vitro proliferation inhibition, OVCAR-8; format: cell-based; conditions: 72 hours, average of three experiments
From the text: as §1, §2

[6] = system: human colon cancer cell HCT116; experiment: MTS in vitro proliferation inhibition, HCT116; format: cell-based; conditions: HCT-116, 72 hours, average of three experiments
From the text: as §1, §2

[7] = system: human multiple myeloma cells RPMI 8226; experiment: MTS in vitro proliferation inhibition, RPMI 8226; format: cell-based; conditions: 72 hours, average of three experiments, read-out: IC50(μM) RPMI8226
From the text: as §1, §2

[8] = system: human prostate cancer cell LnCAP; experiment: MTS in vitro proliferation inhibition, LnCAP; format: cell-based; conditions: 72 hours, average of three experiments
From the text: as §1, §2

[9] = system: human colon cancer cell Colo205; experiment: MTS in vitro proliferation inhibition, Colo205; format: cell-based; conditions: COLO 205, 72 hours, average of three experiments
From the text: as §1, §2

[10] = system: human breast cancer cells MCF-7; experiment: MTS in vitro proliferation inhibition, MCF-7; format: cell-based; conditions: MCF7, 72 hours, average of three experiments
From the text: as §1, §2

[11] = system: human mantle cell lymphoma cells Jeko-1; experiment: MTS in vitro proliferation inhibition, Jeko-1; format: cell-based; conditions: 72 hours, average of three experiments
From the text: as §1, §2

[12] = system: human lymphoma cells Romas; experiment: MTS in vitro proliferation inhibition, Romas; format: cell-based; conditions: 72 hours, average of three experiments
From the text: as §1, §2

[13] = system: Human lung cancer cell A549; experiment: MTS in vitro proliferation inhibition, A549; format: cell-based; conditions: 72 hours, average of three experiments
From the text: as §1, §2

Question: How did the IC50 [1] turn out when Cc1cc(Nc2ncc(-c3cnn(C)c3)c(NC3CCNCC3)n2)n[nH]1 [Compound 1, 5-(1-methyl-1H-pyrazol-4-yl)-N^2-(3-methylpyrazol-5-yl)-N^4-(piperidin-4-yl)-2,4-diaminopyrimidine] was run?
Answer: > 10 µM

Question: Which IC50 [1] does the source give for Cc1cc(Nc2ncc(-c3cnn(C)c3)c(NC3CCNCC3)n2)no1 [Compound 2, 5-(1-methyl-1H-pyrazol-4-yl)-N^2-(5-methyloxazol-3-yl)-N^4-(piperidin-4-yl)-2,4-diaminopyrimidine] here?
Answer: > 10 µM

Question: With Cc1cc(Nc2ncc(-c3cccs3)c(NC3CCNCC3)n2)n[nH]1 [Compound 3, 5-(thien-2-yl)-N^2-(5-methylpyrazol-3-yl)-N^4-(piperidin-4-yl)-2,4-diaminopyrimidine] as the compound, how does the IC50 [1] read?
Answer: > 10 µM

Question: Cc1cc(Nc2ncc(-c3cccs3)c(NC3CCNCC3)n2)no1 [Compound 4, 5-(thien-2-yl)-N^2-(5-methyloxazol-3-yl)-N^4-(piperidin-4-yl)-2,4-diaminopyrimidine] was tested. Which IC50 [1] did it give?
Answer: > 10 µM

Question: How did the IC50 [1] turn out when Cc1cc(Nc2ncc(-c3ccco3)c(NC3CCNCC3)n2)n[nH]1 [Compound 5, 5-(furan-2-yl)-N^2-(5-methylpyrazol-3-yl)-N^4-(piperidin-4-yl)-2,4-diaminopyrimidine] was run?
Answer: > 10 µM

Question: Cc1cc(Nc2ncc(-c3ccco3)c(NC3CCNCC3)n2)no1 [Compound 6, 5-(furan-2-yl)-N^2-(5-methyloxazol-3-yl)-N^4-(piperidin-4-yl)-2,4-diaminopyrimidine] was tested. Which IC50 [1] did it give?
Answer: > 10 µM

Question: With N#Cc1ccc(Nc2ncc(-c3ccco3)c(NC3CCNCC3)n2)cn1 [Compound 17, 5-(furan-2-yl)-N^2-(2-cyanopyridin-5-yl)-N^4-(piperidin-4-yl)-2,4-diaminopyrimidine] as the compound, how does the IC50 [2] read?
Answer: 0.044 µM

Question: And the IC50 [3]?
Answer: 0.708 µM

Question: And the IC50 [4]?
Answer: 3.17 µM

Question: And the IC50 [5]?
Answer: 4.71 µM

Question: And the IC50 [6]?
Answer: 2.68 µM

Question: What about the IC50 [7] of the same compound?
Answer: 3.34 µM

Question: What about the IC50 [8] of the same compound?
Answer: 1.44 µM

Question: And the IC50 [9]?
Answer: 2.77 µM

Question: And the IC50 [10]?
Answer: 1.8 µM

Question: And the IC50 [11]?
Answer: 0.342 µM

Question: And the IC50 [12]?
Answer: 0.536 µM

Question: And the IC50 [13]?
Answer: 0.774 µM

Question: Which results are given for Cn1cc(-c2cnc(Nc3ccc(C#N)nc3)nc2N[C@H]2CCCNC2)cn1 [Compound 21, (S)-5-(1-methyl-1H-pyrazol-4-yl)-N^2-(2-cyanopyridin-5-yl)-N^4-(piperidin-3-yl)-2,4-diaminopyrimidine]?
Answer: IC50 [2]: 0.035 µM; IC50 [3]: 0.608 µM; IC50 [4]: 2.11 µM; IC50 [5]: 3.24 µM; IC50 [6]: 1.39 µM; IC50 [7]: 3.6 µM; IC50 [8]: 0.842 µM; IC50 [9]: 1.54 µM; IC50 [10]: 2.56 µM; IC50 [11]: 0.253 µM; IC50 [12]: 0.401 µM; IC50 [13]: 1.02 µM

Question: How did the IC50 [1] turn out when Cn1cc(-c2cnc(Nc3ccc(C#N)cn3)nc2NC2CCNCC2)cn1 [Compound 26, 5-(1-methyl-1H-pyrazol-4-yl)-N^2-(3-cyanopyridin-6-yl)-N^4-(piperidin-4-yl)-2,4-diaminopyrimidine] was run?
Answer: > 10 µM

Question: For Cn1cc(-c2cnc(Nc3cnc(C#N)cn3)nc2NC2CCNCC2)cn1 [Compound 27, 5-(1-methyl-1H-pyrazol-4-yl)-N^2-(2-cyanopyrazin-5-yl)-N^4-(piperidin-4-yl)-2,4-diaminopyrimidine], which IC50 [1] is on record?
Answer: > 10 µM

Question: Which IC50 [1] does the source give for N#Cc1ccc(Nc2ncc(Br)cn2)cn1 [Compound 30, 5-bromo-N-(2-cyanopyridin-5-yl)-2-aminopyrimidine] here?
Answer: > 10 µM

Question: With N#Cc1ccc(Nc2ncc(-c3ccccc3N)cn2)cn1 [Compound 31, 5-(2-aminophenyl)-N-(2-cyanopyridin-5-yl)-2-aminopyrimidine] as the compound, how does the IC50 [1] read?
Answer: > 10 µM

Question: How did the IC50 [1] turn out when N#Cc1ccc(Nc2ncc(-c3ccccc3NCC3CCNCC3)cn2)cn1 [Compound 33, 5-(2-(piperidin-4-methyl)aminophenyl)-N-(2-cyanopyridin-5-yl)-2-aminopyrimidine] was run?
Answer: > 10 µM

Question: N#Cc1ccc(Nc2ncc(C(F)(F)F)c(NCC3CCNCC3)n2)cn1 [Compound 34, 5-trifluoromethyl-N^2-(2-cyanopyridin-5-yl)-N^4-(piperidin-4-methyl)-2,4-diaminopyrimidine] was tested. Which IC50 [1] did it give?
Answer: < 1 µM

Question: N#Cc1ccc(Nc2ncc(C(F)(F)F)c(NC3CCNCC3)n2)cn1 [Compound 35, 5-trifluoromethyl-N^2-(2-cyanopyridin-5-yl)-N^4-(piperidin-4-yl)-2,4-diaminopyrimidine] was tested. Which IC50 [1] did it give?
Answer: < 1 µM

Question: How did the IC50 [1] turn out when N#Cc1ccc(Nc2ncc(C(F)(F)F)c(N[C@@H]3CCCNC3)n2)cn1 [Compound 36, (R)-5-trifluoromethyl-N^2-(2-cyanopyridin-5-yl)-N^4-(piperidin-3-yl)-2,4-diaminopyrimidine] was run?
Answer: < 1 µM
